Key:
Mycobacterium abscessus = experiment: Anti-mycobacterial activity in infected THP-1 macrophages (CFU of cell lysates); format: cell-based
Description: Modification of the Dulbecco Eagle medium (Cellgro 15-017-cv) supplemented with: • Heat-inactivated fetal calf serum (Atlas Biologicals, Fort Collins, CO, F-0500-A) (10%) • LCM (10%)
Medium conditioned by L929: L-929 (CCL-1) (ATCC) cells secrete the macrophage colony-stimulating factor (M-CSF), the cytokine that differentiates bone marrow macrophages/monocyte progenitors into a homogeneous population of mature macrophages. They are seeded at 4.7×10^5 cells in 55 ml of DMEM+10% of fetal calf serum in a ball of 75 cm2. Cells are left to grow for 3 days and then the supernatant is collected and filtered through a 0.45 μm filter, aliquoted and frozen at −20° C.
The cell-free filtrate is used in DMEM media. • L-glutamine (Sigma G-7513) (2 mM) • HEPES buffer (Sigma H-0887) (10 mM) Antibiotic/antimycotic (Sigma A-9909) (1×) • non-essential amino acids MEM (Sigma M-7145) (1×) • 2-mercaptoethanol (Sigma M-6250) (50 nM)
THP-1 cells were expanded for 2 weeks.
Complete DMEM media free of antibiotic/antimycotic were not changed during the 3-day test.
On day 0, the media were removed from the cells and replaced with 0.2 mL of antibiotic/antimycotic-free DMEM containing Mycobacterium abscessus at a ratio of 10 bacteria per macrophage.
The tissue culture plates were placed inside closed Ziploc bags and transported to the incubator. Once inside the incubator, the bags were opened. The cells were incubated with the bacteria for 2 hours.
After the infection, the extracellular bacteria were removed by washing each well once with PBS. Then 2 mL of complete DMEM medium free of antibiotics/antimycotics and various drug concentrations were added.
Each drug concentration was tested in triplicate. Culture plates were incubated with antibiotics at 37° C.+5% CO2 for 3 days.

[1] = Storage of a solution of tigecycline (degradation in aqueous solution); format: physicochemical; conditions: degradation by oxidation and epimerization; 24 hours at 5° C., 25° C. and 40° C.

CN(C)c1cc(NC(=O)CNC(C)(C)C)c(O)c2c1C[C@H]1C[C@H]3[C@H](N(C)C)C(O)=C(C(N)=O)C(=O)[C@@]3(O)C(O)=C1C2=O [Pure Tigecycline, tigecycline]
Day 1 CFU (Mycobacterium abscessus; pure tigecycline 1 μg/ml): 287 CFU | Day 2 CFU (Mycobacterium abscessus; pure tigecycline 1 μg/ml): 2067 CFU | Day 3 CFU (Mycobacterium abscessus; pure tigecycline 1 μg/ml): 2667 CFU | Day 1 CFU (Mycobacterium abscessus; pure tigecycline 2 μg/ml): 263 CFU | Day 2 CFU (Mycobacterium abscessus; pure tigecycline 2 μg/ml): 203 CFU | Day 3 CFU (Mycobacterium abscessus; pure tigecycline 2 μg/ml): 1743 CFU | Day 1 CFU (Mycobacterium abscessus; pure tigecycline 4 μg/ml): 427 CFU | Day 2 CFU (Mycobacterium abscessus; pure tigecycline 4 μg/ml): 123 CFU | Day 3 CFU (Mycobacterium abscessus; pure tigecycline 4 μg/ml): 267 CFU | Day 1 CFU (Mycobacterium abscessus; pure tigecycline 8 μg/ml): 303 CFU | Day 2 CFU (Mycobacterium abscessus; pure tigecycline 8 μg/ml): 203 CFU | Day 3 CFU (Mycobacterium abscessus; pure tigecycline 8 μg/ml): 220 CFU | Day 1 CFU (Mycobacterium abscessus; pure tigecycline 16 μg/ml): 333 CFU | Day 2 CFU (Mycobacterium abscessus; pure tigecycline 16 μg/ml): 203 CFU | Day 3 CFU (Mycobacterium abscessus; pure tigecycline 16 μg/ml): 153 CFU | Day 1 CFU (Mycobacterium abscessus; pure tigecycline 24 μg/ml): 287 CFU | Day 2 CFU (Mycobacterium abscessus; pure tigecycline 24 μg/ml): 90 CFU | Day 3 CFU (Mycobacterium abscessus; pure tigecycline 24 μg/ml): 143 CFU | stability in aqueous solution [1]: extremely unstable

— patent publication US20250049705A1, “PHARMACEUTICAL COMPOSITION COMPRISING TIGECYCLINE” (ZAMBON S.p.A., priority 2021, published 2025)
